Measured values reported in patent US4555525A, “Use of desethyl-N-acetylprocainamide (NAPADE) as an inotropic agent” (Administrators of the Tulane Educational Fund, priority 1984, dated 1985).
Values joined by “and” are separate entries in the source; they are usually repeats but may differ in a detail not shown here. Equal values may be shown once. “Also recorded” adds a separate entry of the source. Read-outs that look alike come from different tables or passages of the source. Each block holds one compound with its values, some of them ahead of it.

Legend:
[1] = test system: cardiac muscle; assay: Cardiovascular effects of procainamide and NAPA, for comparison with NAPADE; format: in vivo; conditions: procainamide or NAPA; for effect on force of contraction of the heart muscle (inotropic effect): procainamide at 60 mg/kg i.v. as a 15 minute infusion, 60 mg/kg
[2] = test system: cardiac muscle; assay: NAPA effect after pretreatment with propranolol; format: in vivo
[3] = cited from earlier work
[4] = test system: cardiac muscle; assay: Cardiovascular effects in chloralose-urethane anesthetized dogs (myocardial force, heart rate, mean arterial pressure); format: in vivo, dog (male mongrel)
Text: We have investigated the cardiovascular effects of NAPADE in animal models and have observed the following unique properties of NAPADE: […]
(§1) Myocardial force, mean arterial pressure and heart rate are expressed as the percent change from baseline for each experimental group. Statistical analysis was done with analysis of variance for repeated measurements and Duncan's multiple range test. All values are mean ± SEM.

[5] = test system: β-adrenergic receptor; assay: Cardiovascular effects of NAPADE after pretreatment with propranolol in anesthetized dogs; format: in vivo, dog (male mongrel)
Text: as §1

[6] = mice; cited from earlier work
[7] = NAPADE pharmacokinetics in chloralose-urethane anesthetized dogs (HPLC plasma levels, two-compartment model); format: in vivo, dog (male mongrel)
Procedure: Blood samples were obtained over a period of 5-120 minutes to measure NAPADE plasma concentration by high-performance liquid chromatography (HPLC) and to construct a plasma concentration versus time curve of FIG. 1.
The pharmacokinetics of NAPADE were analyzed with a two-compartment model with elimination from the central compartment. The method of residuals was used to resolve the exponential components of each plasma concentration versus time curve and to obtain estimates of alpha and beta (first-order rate constants) and A and B intercepts corrected to 0-time using the method of Loo and Reigelman. These parameters were then used to estimate apparent volume of distribution (V central, V peripheral, V total) and clearance values (Cl intercompartmental, Cl elimination) for each dog according to standard pharmacokinetic methodology.

[8] = NAPADE-HCl 60 mg/kg, 15-minute IV infusion
[9] = NAPADE-HCl 60 mg/kg IV after propranolol 0.5 mg/kg followed by 10 μg/kg/min
[10] = individual dogs No. 1-8, one line per dog, NAPADE-HCl 60 mg/kg, 15-minute IV infusion, 60 mg/kg

SMILES: CCN(CC)CCNC(=O)c1ccc(NC(C)=O)cc1 [NAPA, N-acetylprocainamide]
effect on blood pressure (hypotensive effect) [1]: exhibiting hypotensive effects
effect on heart rate [1]: decreasing the heart rate
effect on force of contraction of the heart muscle (inotropic effect) [1]: increases the force of contraction of heart muscle; also recorded: positive inotropic effects
inotropic action after propranolol pretreatment [2]: negative inotropic action is apparent
elimination half-life ([3]; NAPA in the dog, approximate): approximately six
elimination clearance ([3]; NAPA in the dog): 2.64 ± 0.9 mL/min/kg
apparent volume of distribution (Vtotal) ([3]; NAPA, previous studies): 1.48 ± 0.16 L/kg

apparent volume of distribution, NAPADE as a fraction of NAPA value ([7]; compared with NAPA from previous studies): approximately one-third
half-life ([7]; dog, plasma, iv, 60 mg/kg, individual dogs No. 1-8, one line per dog, NAPADE-HCl 60 mg/kg, 15-minute IV infusion, read-out: T1/2(BETA) (elimination half-life)): 55 min
half-life ([7]; dog, plasma, iv, 60 mg/kg, mean of 8 dogs (± SEM in text), NAPADE-HCl 60 mg/kg, 15-minute IV infusion, read-out: T1/2 beta (terminal / elimination half-life)): 54.5 ± 2.9 min
clearance ([7]; dog, plasma, iv, 60 mg/kg, mean of 8 dogs, NAPADE-HCl 60 mg/kg, 15-minute IV infusion, read-out: ClELIMINATION (elimination clearance)): 8.56 mL/min/kg
Vd ([7]; dog, plasma, iv, 60 mg/kg, mean of 8 dogs, NAPADE-HCl 60 mg/kg, 15-minute IV infusion, read-out: VCENTRAL (volume of the central compartment)): 0.153 L/kg
Vd ([7]; dog, plasma, iv, 60 mg/kg, mean of 8 dogs, NAPADE-HCl 60 mg/kg, 15-minute IV infusion, read-out: VTOTAL (total apparent volume of distribution)): 0.513 L/kg
Cmax at 0.25 h ([7]; dog, plasma, NAPADE-HCl 60 mg/kg, 15-minute IV infusion, at 15 minutes, mean ± SEM, read-out: peak NAPADE concentrations (plasma)): 165 ± 18.1 µg/mL
Tmax ([7]; dog, plasma, NAPADE-HCl 60 mg/kg, 15-minute IV infusion, read-out: time of peak plasma concentrations (converted)): 15 min
ClINTERC. (intercompartmental clearance) ([7]; mean of 8 dogs, NAPADE-HCl 60 mg/kg, 15-minute IV infusion): 15.46 mL/min/kg
ClELIMINATION (elimination clearance) ([7]; mean of 8 dogs, NAPADE-HCl 60 mg/kg, 15-minute IV infusion, 60 mg/kg): 8.56 ± 1.2 mL/min/kg
SMILES: CCNCCNC(=O)c1ccc(NC(C)=O)cc1 [NAPADE, Desethyl-N-acetylprocainamide]
duration of inotropic and chronotropic actions ([4]; NAPADE-HCl 60 mg/kg IV): 50 to 90 min
duration of significantly increased myocardial force ([4]; NAPADE-HCl 60 mg/kg IV, compared to the control group): 90 min
duration of significantly increased heart rate ([4]; NAPADE-HCl 60 mg/kg IV, over control): 50 min
time of peak effects (inotropic and chronotropic) [4, 8]: 15 min
maximum increase in heart rate over baseline ([4]; NAPADE-HCl 60 mg/kg, 15-minute IV infusion, mean ± SEM): 22.2±4.4 percent over baseline
maximum increase in myocardial force over baseline ([4]; NAPADE-HCl 60 mg/kg, 15-minute IV infusion, right ventricular, mean ± SEM): 48.9±10 percent over baseline
effect on blood pressure (hypotensive effect) ([4]; NAPADE, result in words): lacks significant hypotensive effects; also recorded: small and statistically insignificant changes in blood pressure; also recorded: without significant changes in systemic arterial pressure
effect on heart rate (chronotropic effect) ([4]; NAPADE, result in words): positive chronotropic effect; also recorded: significant increases in myocardial force and heart rate; also recorded: significant positive inotropic and chronotropic actions
effect on myocardial force of contraction (inotropic effect) ([4]; NAPADE, result in words): positive inotropic effects; also recorded: very significant increase in myocardial force of contraction; also recorded: significant increases in myocardial force; also recorded: significant positive inotropic and chronotropic actions
negative inotropic (myocardial depressant) effect after propranolol pretreatment ([5]; NAPADE in the presence of β-adrenergic receptor blockade with propranolol): lacks negative inotropic effects; also recorded: No such effect was seen
blood pressure effect after propranolol pretreatment [5, 9]: only a mild decrease in blood pressure; also recorded: seemed to potentiate the mild hypotensive actions; also recorded: potentiated the mild hypotensive actions
chronotropic action after propranolol pretreatment [5, 9]: abolishes the positive inotropic and chronotropic actions; also recorded: effectively blocked the positive inotropic and chronotropic actions
inotropic action after propranolol pretreatment [5, 9]: abolishes the positive inotropic and chronotropic actions; also recorded: effectively blocked the positive inotropic and chronotropic actions
antifibrillatory activity [6]: antifibrillatory activity
decline of plasma concentrations / kinetics of elimination [7, 8]: declined in a bi-exponential fashion; also recorded: bi-exponential kinetics of elimination
ClINTERC. (intercompartmental clearance) ([7]; individual dogs No. 1-8, one line per dog, NAPADE-HCl 60 mg/kg, 15-minute IV infusion): 7.46 mL/min/kg and 9.99 mL/min/kg and 24.67 mL/min/kg and 9.91 mL/min/kg and 24.12 mL/min/kg and 22.45 mL/min/kg and 9.31 mL/min/kg and 15.77 mL/min/kg
ClELIMINATION (elimination clearance) [7, 10]: 8.17 mL/min/kg and 4.99 mL/min/kg and 12.61 mL/min/kg and 7.34 mL/min/kg and 13.11 mL/min/kg and 11.54 mL/min/kg and 5.75 mL/min/kg and 5 mL/min/kg
T1/2(BETA) (elimination half-life) [7, 10]: 60 min and 67 min and 57 min and 56 min and 40 min and 47 min and 54 min
VTOTAL (total apparent volume of distribution) [7, 10]: 0.447 L/kg and 0.342 L/kg and 0.893 L/kg and 0.476 L/kg and 0.806 L/kg and 0.499 L/kg and 0.293 L/kg and 0.346 L/kg

SMILES: CCN(CC)CCNC(=O)c1ccc(N)cc1 [procainamide, Procainamide]
effect on blood pressure (hypotensive effect) [1]: exhibits hypotensive effects
effect on heart rate [1]: decreases the heart rate
effect on force of contraction of the heart muscle (inotropic effect) [1]: decreases the force of contraction of the heart muscle; also recorded: negative inotropic effect
